Assay results published in PMC3112094, “Pro-apoptotic activity of α-bisabolol in preclinical models of primary human acute leukemia cells” (Journal of Translational Medicine, 2011).

Key:
Type in all cases: cell-based, human
leukemic blasts [1] = assay: Mitochondrial membrane potential, JC-1 staining; details: 40 μM α-bisabolol, 3 and 5 hours, JC-1, 6 leukemias tested
Description: (§1) Cells resuspended in CM at 1 × 10^6/mL were treated with 40 μM α-bisabolol for 3 or 5 hours at 37°C. They were then washed with pre-warmed CM, 4 μM of the potential sensitive dye JC-1 (5,5',6,6'-tetra-chloro-1,1',3,3'-tetra-ethyl-benz-imidazolyl-carbocyanine iodide, Molecular Probes, Eugene, OR) was added, and they were then placed back into the incubator. After 30 minutes they were washed twice with pre-warmed PBS. An aliquot of each sample was spotted onto a slide, mounted with a coverslip and immediately recorded by an Axio Observer inverted microscope (Zeiss, Gottingen, DE). Visualization of JC-1 monomers (green fluorescence) and JC-1 aggregates (red fluorescence) was done using filter sets for fluorescein and rhodamine dyes (emission 488 and 550 nm respectively). Image captures of random fields using fixed imaging parameters were performed, and previously unviewed areas of cells were captured to avoid photobleaching. Image analysis was done using Axiovision 3 software. The other aliquot of each sample was resuspended in PBS and analyzed using a FACSCalibur cytometer (Becton Dickinson) equipped with a 488 nm argon laser. The emission of JC-1 monomers was detected in Fl-1 using a 530/30 nm bandpass filter, and JC-1 aggregates were detected in Fl-2 using a 585/42 nm bandpass filter. FlowJo 8.8.2 software (Tree Star, Ashland, OR) was used to analyze data.

normal lymphocytes = assay: Mitochondrial membrane potential, JC-1 staining; details: similar α-bisabolol concentration (40 μM)
Description: as §1

BID = assay: Western blot for BID cleavage and mitochondrial translocation
Description: (§2) Cells were homogenized at 4°C in 50 mM Tris-HCl (pH 8) containing 0.1% Nonidet-P40 (NP-40), 200 mM KCl, 2 mM MgCl2, 50 μM ZnCl2, 2 mM DTT, and protease inhibitors [1 mM phenylmethylsulfonyl fluoride (PMSF), 1 mg/mL leupeptin, and 1 mg/mL antipain]. Aliquots of the homogenates (40 μg total protein/lane) were loaded on SDS-polyacrylamide gels at the appropriate concentrations. Electrophoresis was performed at 100 V with a running buffer containing 0.25 M Tris-HCl (pH 8.3), 1.92 M glycine, and 1% SDS. The resolved proteins were electroblotted onto a nitrocellulose membrane using the iBlot™ system (Invitrogen, Carlsbad, CA). Membranes were then incubated with a mouse monoclonal IgG antibody to poly(ADP-ribose) polymerase (PARP) (Zymed, South San Francisco, CA), with a rabbit polyclonal IgG antibody to BID (Cell Signaling Technology, Danvers, MA) or with a rabbit polyclonal IgG antibody to α-tubulin (Cell Signaling Technology). The membranes were then washed and incubated with an anti-mouse or anti-rabbit IgG peroxidase-conjugated antibody (Cell Signaling Technology). The blots were washed again and then incubated with enhanced chemiluminescent detection reagents (Immun-Star™ WesternC™ Kit, Bio-Rad, Hercules, CA) according to the manufacturer's instructions. Proteins were detected using the ChemiDoc XRS Imaging System (Bio-Rad). […]

leukemic blasts [2] = assay: PARP cleavage (Western blot) and DNA ladder; details: blasts of case Ph^-B-ALL #01 after α-bisabolol exposure
Description: as §2

CC(C)=CCC[C@](C)(O)[C@@H]1CC=C(C)CC1 [α-bisabolol]
mitochondrial transmembrane potential (ΔΨm) (leukemic blasts [1]): dissipates the mitochondrial transmembrane potential | mitochondrial transmembrane potential (ΔΨm) (normal lymphocytes): no mitochondrial damage | cleavage of BID to truncated BID (BID; 24-hour α-bisabolol, any concentration, PBMCs and blasts): did not induced the cleavage of BID | BID translocation to mitochondrial fraction (BID; different times and solubilized doses of α-bisabolol): No BID translocation was detected | PARP cleavage and DNA laddering (leukemic blasts [2]): underwent PARP cleavage and DNA laddering
